Laboratory results as given in article PMC3422614 (Biochemistry, 2011).
Entries after “also recorded” stand apart in the source; their conditions may differ. Read-outs that look alike come from different tables or passages of the source. Where no end group is shown, it is not given here.

Experiments:
ERK2 [1] = target: T1, ERK2 (Rattus norvegicus, UniProt P63086); assay: Dose-response effect of docking ligands on ERK2 phosphorylation of Sub-D; assay type: biochemical
ERK2 [2] = target: T1, ERK2; assay: Dose-response effect of docking ligands on ERK2 phosphorylation of Sub-F; assay type: biochemical
ERK2 [3] = target: T1, ERK2; assay: Inhibition patterns for the phosphorylation of Sub-D by ERK2; assay type: biochemical
ERK2 [4] = target: T1, ERK2; assay: Inhibition patterns for the phosphorylation of Sub-F by ERK2; assay type: biochemical
ERK2 [5] = target: T1, ERK2; assay: Kinetics of Sub-F phosphorylation by ERK2 at saturating Lig-D; assay type: biochemical
ERK2 [6] = target: T1, ERK2; assay type: biochemical
ERK•Ets-1 complex = details: cited from earlier work
ERK2 [7] = target: T1, ERK2; details: protein substrate; cited from earlier work

T1 sequence (P63086 whole entry): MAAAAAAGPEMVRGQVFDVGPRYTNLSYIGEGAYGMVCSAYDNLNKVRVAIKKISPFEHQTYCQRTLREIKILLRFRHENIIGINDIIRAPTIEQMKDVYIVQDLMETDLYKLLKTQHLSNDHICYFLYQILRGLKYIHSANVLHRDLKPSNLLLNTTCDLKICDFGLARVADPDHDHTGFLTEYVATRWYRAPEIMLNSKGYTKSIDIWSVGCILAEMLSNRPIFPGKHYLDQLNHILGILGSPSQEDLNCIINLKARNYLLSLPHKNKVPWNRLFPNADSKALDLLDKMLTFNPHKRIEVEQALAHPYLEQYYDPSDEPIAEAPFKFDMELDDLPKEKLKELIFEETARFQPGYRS

Question: Which IC50 (ERK2 [1]) does the source give for CC(=O)N[C@@H](Cc1ccccc1)C(=O)N[C@@H](CCC(N)=O)C(=O)N[C@@H](CCCNC(=N)N)C(=O)N[C@@H](CCCCN)C(=O)N[C@H](C(=O)N[C@@H](CC(C)C)C(=O)N[C@@H](CCC(N)=O)C(=O)N[C@@H](CCCNC(=N)N)C(=O)N[C@@H](CCCNC(=N)N)C(=O)N[C@@H](CC(N)=O)C(=O)N[C@@H](CC(C)C)C(=O)N[C@@H](CCCCN)C(=O)NCC(=O)N[C@@H](CC(C)C)C(=O)N[C@@H](CC(N)=O)C(=O)N[C@@H](CC(C)C)C(=O)N[C@@H](CC(N)=O)C(=O)N[C@@H](CC(C)C)C(N)=O)[C@@H](C)O [Lig-D] here?
Answer: The IC50 was 30 ± 4 µM.

Question: And the EC50 (ERK2 [2])?
Answer: Its EC50 is 10 ± 8 µM.

Question: Which Mechanism of inhibition (ERK2 [3]; varied MgATP, fixed Sub-D) does the source give for Nc1ncnc2c1ncn2[C@@H]1O[C@H](COP(=O)([O-])OP(=O)([O-])O)[C@@H](O)[C@H]1O.[Mg+2] [MgADP] here?
Answer: The Mechanism of inhibition was “competitive pattern for towards MgATP^2-”.

Question: And the Mechanism of inhibition (ERK2 [3]; varied Sub-D, fixed MgATP)?
Answer: Its Mechanism of inhibition is “Noncompetitive”.

Question: And the Mechanism of inhibition (ERK2 [4]; varied MgATP, fixed Sub-F)?
Answer: The Mechanism of inhibition was “competitive pattern for towards MgATP^2-”.

Question: And the Mechanism of inhibition (ERK2 [4]; varied Sub-F, fixed MgATP)?
Answer: The Mechanism of inhibition was “Noncompetitive”.

Question: For Ac-YAPRAPAKLAFQFPSR-NH2 [Lig-F], which “Effect on Sub-D phosphorylation (kobs)” value (ERK2 [1]; Fig. 5A, Sub-D 3 μM, 1 mM MgATP, increasing ligand) is on record?
Answer: The value was “no effect on kobs for the phosphorylation of Sub-D; also recorded: no effect on the ability of ERK2 to phosphorylate Sub-D”.

Question: What about the IC50 (ERK2 [2]) of the same molecule?
Answer: The IC50 was 35 ± 3 µM.

Question: And the “Effect on Sub-F phosphorylation (kobs)” value (ERK2 [2]; Fig. 5B, Sub-F 15 μM, 1 mM MgATP, increasing ligand)?
Answer: Its value is “competitively inhibits Sub-F”.

Question: What about the Mechanism of inhibition (ERK2 [4]; varied MgATP, fixed Sub-F) of the same molecule?
Answer: Its Mechanism of inhibition is “Noncompetitive”.

Question: And the Mechanism of inhibition (ERK2 [4]; varied Sub-F, fixed MgATP)?
Answer: The Mechanism of inhibition was “Competitive”.

Question: With YAEPLTPRILAKWEWPA-NH2 [Sub-F] as the molecule, how does the Ki (ERK2 [5]) read?
Answer: The Ki was 5 ± 2 µM.

Question: What about the Ki (ERK2 [6]) of the same molecule?
Answer: Its Ki is 3.3 ± 1.1 µM.

B1: Ets: murine (His6-tagged)Ets1(1-138), protein substrate of ERK2 (protein, UniProt P27577 1-138, looked up, fragment)
chain: MKAAVDLKPTLTIIKTEKVDLELFPSPDMECADVPLLTPSSKEMMSQALKATFSGFTKEQQRLGIPKDPRQWTETHVRDWVMWAVNEFSLKGVDFQKFCMSGAALCALGKECFLELAPDFVGDILWEHLEILQKEDVK
modifications: His6 tag
Question: What does the source list for B1?
Answer: stabilization of the ERK•Ets-1 complex by Ets-1 N-terminus docking to the DRS (ERK•Ets-1 complex): approximately 10 fold; kcat (ERK2 [6]; Table 1, fit to eqn. 2, 27 °C, pH 7.4, 2 nM ERK2): 17 ± 1 S^−1; Kinetic mechanism of phosphorylation (ERK2 [7]): random-order mechanism; kcat/Km (ERK2 [7]): 6e+06 M⁻¹ s⁻¹
